Measurements reported in US8748412B2, “Phenylalanine derivatives and their use as non-peptide GLP-1 receptor modulators” (Argusina Bioscience Inc., priority 2011, dated 2014).

Target: T1, human GLP1R (Homo sapiens, UniProt P43220)
T1 construct: expressed in transfected cells; host or cells: CHO cells (ATCC), transient transfection with pCMV-human GLP1R
Test: Human GLP-1 receptor transfected cell assay (MRE/CRE-luciferase reporter gene, agonist activity)
Assay type: cell-based
Settings: 6 h; concentration 1 μM; read-out: Activity (agonist), percentage of the activity of the control
Method: The glucagon-like peptide I receptor (GLP1R) is a class B Gs-coupled membrane receptor, an agonist of which activates adenylate cyclase (AC) and elevates intracellular cAMP level. In turn, the high content of secondary messengers can activate the cAMP response element binding protein (CREB), which can translocate into nucleus to activate gene transcription.
A reporter gene based screening assay was established to measure the effect of a compound on GLP1R. In this assay, a compound was incubated with CHO cells transiently transfected with a human GLP1R plasmid and a multiple response element (MRE)/cAMP response element (CRE)-driven luciferase reporter plasmid. Once luciferase was induced by the compound, its specific substrate can be activated to produce light signal for measurement.
Materials used in this assay included: (i) cell line: Chinese hamster ovary (CHO) cells (ATCC); (ii) fetal bovine serum (FBS) (Biochrom Co.); (iii) culture medium: RPMI1640 (Invitrogen Co.) supplemented with 10% FBS; (iv) LIPOFECTAMINE™ 2000 Reagent (Invitrogen Co.); (v) plasmids: pCMV-human GLP1R and pGL3-1905 reporter plasmid; (vi) GLP1 (7-36 amide) peptide (Sigma Co.); and (vii) BRIGHT-GLO™ Luciferase Assay System (Promega Co.).
Instruments used in this assay included: (i) Form a carbon dioxide incubator (Thermo Form a Co.); and (ii) Flexstation 3 (Molecular Device Co.).
Before transfection, CHO cells were plated into a 6-well culture plate at 800,000/2 mL/well, and cultured at 37° C. in 5% CO2 overnight. On the transfection day, cells were transfected with receptor plasmid and reporter plasmid using LIPOFECTAMINE™ 2000 reagent. After 6-hour transfection, cells were digested and seeded into 96-well plates at 20,000/100 μL/well. After 14-16 hour incubation, transfected cells were washed with 100 μL serum-free RPMII 640 medium first, and then added 50 μL of the culture medium. The GLP-1 standard and test compounds were respectively diluted to a series of concentrations, which were then added into the above 96-well culture plate at 50 μL/well. The cells were incubated at 37° C. in 5% CO2 for 6 hrs. The activity of luciferase was detected using BRIGHT-GLO™ Luciferase Analytic System, and the reading was performed with a Flexstation3 plate reader machine.

T1 sequence (P43220 24-463): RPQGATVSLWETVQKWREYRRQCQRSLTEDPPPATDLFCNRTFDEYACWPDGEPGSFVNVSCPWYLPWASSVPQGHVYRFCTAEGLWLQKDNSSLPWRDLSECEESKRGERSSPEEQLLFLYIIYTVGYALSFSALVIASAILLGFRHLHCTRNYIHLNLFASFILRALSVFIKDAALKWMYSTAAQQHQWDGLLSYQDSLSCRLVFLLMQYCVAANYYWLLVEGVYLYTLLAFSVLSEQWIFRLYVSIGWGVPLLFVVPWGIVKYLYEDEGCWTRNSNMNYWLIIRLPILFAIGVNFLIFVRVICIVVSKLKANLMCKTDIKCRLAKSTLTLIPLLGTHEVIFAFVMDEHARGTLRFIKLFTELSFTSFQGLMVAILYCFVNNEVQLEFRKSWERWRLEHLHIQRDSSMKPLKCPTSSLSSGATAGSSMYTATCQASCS

SMILES | activation at 1 µM [%]
CC(C)(C)OC(=O)Nc1ccc(-c2nc(-c3ccc(CC(NC(=O)c4cccc(-c5ccc(F)cc5)c4)C(=O)O)cc3F)no2)cc1 (stereo not shown) [Compound 1V] | 40 to 60
Cc1ccc(-c2ccc(C(=O)NC(Cc3ccc(-c4noc(-c5ccc(NC(=O)OC(C)C)cc5)n4)c(F)c3)C(=O)O)o2)cc1 (stereo not shown) [Compound 2D] | 40 to 60
CC(C)(C)OC(=O)Nc1ccc(-c2nc(-c3ccc(CC(NC(=O)c4cccc(-c5ccc(C6CC6)cc5)c4)C(=O)O)cc3F)no2)cc1 (stereo not shown) [Compound 2L] | > 60
Cc1ccc(-c2nc(C(=O)NC(Cc3ccc(C#Cc4ccc(NC(=O)OC(C)(C)C)cc4)c(F)c3)C(=O)O)cs2)cc1 (stereo not shown) [Compound 3E] | 40 to 60
CC(C)(C)OC(=O)Nc1ccc(-c2nc(-c3ccc(CC(NC(=O)c4cc(-c5ccc(Cl)cc5F)c[nH]4)C(=O)O)cc3F)no2)cc1 (stereo not shown) [Compound 3L] | 20 to 40

Same assay, conditions: 6 h; concentration 3 μM; read-out: Activity (agonist), percentage of the activity of the control

SMILES | activation at 3 µM [%]
CC(C)(C)OC(=O)Nc1ccc(-c2nc(-c3ccc(CC(NC(=O)c4cccc(-c5ccc(C(F)(F)F)cc5)c4)C(=O)O)cc3F)no2)cc1 (stereo not shown) [Compound 1W] | > 60
CC(C)(C)OC(=O)Nc1ccc(-c2nc(-c3ccc(CC(NC(=O)c4ccc(-c5ccccn5)s4)C(=O)O)cc3F)no2)cc1 (stereo not shown) [Compound 1X] | 40 to 60
CC(C)(C)OC(=O)Nc1ccc(-c2nc(-c3ccc(CC(NC(=O)/C=C/c4ccc(Cl)c(C(F)(F)F)c4)C(=O)O)cc3F)no2)cc1 (stereo not shown) [Compound 2B] | 40 to 60
Cc1ccc(-c2ccc(C(=O)NC(Cc3ccc(-c4noc(-c5ccc(NC(=O)C(C)C)cc5)n4)c(F)c3)C(=O)O)o2)cc1 (stereo not shown) [Compound 2C] | 40 to 60
Cc1ccc(-c2ccc(C(=O)N[C@H](Cc3cc(C)cc(-c4noc(-c5ccc(NC(=O)OC(C)(C)C)cc5)n4)c3)C(=O)O)o2)cc1 [Compound 2E] | 40 to 60
Cc1cc(-n2cc(C(=O)NC(Cc3ccc(-c4noc(-c5ccc(NC(=O)OC(C)(C)C)cc5)n4)c(F)c3)C(=O)O)cn2)ccc1F (stereo not shown) [Compound 3G] | 40 to 60
CC(C)(C)OC(=O)Nc1ccc(-c2nc(-c3ccc(CC(NC(=O)c4cn(Cc5ccc(F)cc5)nn4)C(=O)O)cc3F)no2)cc1 (stereo not shown) [Compound 3K] | 20 to 40

Same assay, conditions: 6 h; concentration 3.16 μM; read-out: Activity (agonist), percentage of the activity of the control

SMILES | activation at 3.16 µM [%]
CC(C)(C)OC(=O)Nc1ccc(-c2nc(-c3ccc(CC(NC(=O)c4cccc(-c5ccc(C#N)cc5)c4F)C(=O)O)cc3F)no2)cc1 (stereo not shown) [Compound 2J] | > 60
CC(C)c1ccc(-c2cccc(C(=O)NC(Cc3ccc(-c4noc(-c5ccc(NC(=O)OC(C)(C)C)cc5)n4)c(F)c3)C(=O)O)c2)cc1 (stereo not shown) [Compound 2K] | > 60
CC(C)(C)OC(=O)Nc1ccc(-c2nc(-c3ccc(CC(NC(=O)c4cccc(-c5ccc(C6CC6)cc5)n4)C(=O)O)cc3F)no2)cc1 (stereo not shown) [Compound 2M] | > 60
CC(C)(C)OC(=O)Nc1ccc(-c2nc(-c3ccc(CC(NC(=O)c4cccc(-c5ccc(Cl)cc5F)n4)C(=O)O)cc3F)no2)cc1 (stereo not shown) [Compound 2N] | > 60
Cc1cc(-c2nc(C(=O)NC(Cc3ccc(-c4noc(-c5ccc(NC(=O)OC(C)(C)C)cc5)n4)c(F)c3)C(=O)O)c[nH]2)ccc1F (stereo not shown) [Compound 2Q] | > 60
Cc1ccc(-c2nc(C(=O)NC(Cc3ccc(-c4noc(-c5ccc(NC(=O)OC(C)(C)C)cc5)n4)c(F)c3)C(=O)O)c[nH]2)cc1 (stereo not shown) [Compound 2R] | > 60
CC(C)(C)OC(=O)Nc1ccc(-c2nc(-c3ccc(CC(NC(=O)c4c[nH]c(-c5ccc(Cl)cc5)n4)C(=O)O)cc3F)no2)cc1 (stereo not shown) [Compound 2S] | > 60
CC(C)(C)OC(=O)Nc1ccc(-c2nc(-c3ccc(CC(NC(=O)c4c[nH]c(-c5ccc(Br)cn5)n4)C(=O)O)cc3F)no2)cc1 (stereo not shown) [Compound 2V] | 40 to 60
Cn1c(C(=O)NC(Cc2ccc(-c3noc(-c4ccc(NC(=O)OC(C)(C)C)cc4)n3)c(F)c2)C(=O)O)cnc1-c1ccc(Cl)cc1 (stereo not shown) [Compound 2Y] | > 60
CC(C)(C)OC(=O)Nc1ccc(-c2nc(-c3ccc(CC(NC(=O)c4cnn(-c5ccc(F)c(F)c5)c4)C(=O)O)cc3F)no2)cc1 (stereo not shown) [Compound 2Z] | > 60
CC(C)(C)OC(=O)Nc1ccc(-c2nc(-c3ccc(CC(NC(=O)c4cnn(-c5ccc(C(C)(C)C)cc5)c4)C(=O)O)cc3F)no2)cc1 (stereo not shown) [Compound 3A] | > 60
Cc1ccc(-n2cc(C(=O)NC(Cc3ccc(-c4noc(-c5ccc(NC(=O)OC(C)(C)C)cc5)n4)c(F)c3)C(=O)O)cn2)cc1F (stereo not shown) [Compound 3B] | > 60
Cc1cc(Cn2cc(C(=O)NC(Cc3ccc(-c4noc(-c5ccc(NC(=O)OC(C)(C)C)cc5)n4)c(F)c3)C(=O)O)cn2)ccc1F (stereo not shown) [Compound 3F] | 20 to 40

Same assay, conditions: 6 h; concentration 10 μM; read-out: Activity (agonist), percentage of the activity of the control

SMILES | activation at 10 µM [%]
CC(C)(C)OC(=O)Nc1ccc(-c2nc(-c3ccc(CC(NC(=O)c4cnc(-c5ccccc5)[nH]4)C(=O)O)cc3F)no2)cc1 (stereo not shown) [Compound 1Y] | > 60
CC(C)(C)OC(=O)Nc1ccc(-c2nc(-c3ccc(CC(NC(=O)c4cc(-c5ccccc5)cs4)C(=O)O)cc3F)no2)cc1 (stereo not shown) [Compound 1Z] | 40 to 60
CC(C)(C)OC(=O)Nc1ccc(-c2nc(-c3ccc(CC(NC(=O)c4cn(-c5ccc(C(F)(F)F)cc5)nn4)C(=O)O)cc3F)no2)cc1 (stereo not shown) [Compound 2A] | > 60
Cc1ccc(-c2cccc(C(=O)NC(Cc3ccc(-c4noc(-c5ccc(NC(=O)OC(C)(C)C)cc5)n4)c(F)c3)C(=O)O)n2)cc1 (stereo not shown) [Compound 2F] | 10 to 20
CC(C)(C)OC(=O)Nc1ccc(-c2nc(-c3ccc(CC(NC(=O)c4cccc(-c5ccc(Cl)cc5)c4)C(=O)O)cc3F)no2)cc1 (stereo not shown) [Compound 2G] | 40 to 60
CCc1ccc(-c2cccc(C(=O)NC(Cc3ccc(-c4noc(-c5ccc(NC(=O)OC(C)(C)C)cc5)n4)c(F)c3)C(=O)O)c2)cc1 (stereo not shown) [Compound 2I] | 40 to 60
CSc1ccc(-c2cccc(C(=O)NC(Cc3ccc(-c4noc(-c5ccc(NC(=O)OC(C)(C)C)cc5)n4)c(F)c3)C(=O)O)n2)cc1 (stereo not shown) [Compound 2O] | > 60
CC(C)(C)OC(=O)Nc1ccc(-c2nc(-c3ccc(CC(NC(=O)c4cnn(-c5ccc(F)cc5)c4)C(=O)O)cc3F)no2)cc1 (stereo not shown) [Compound 2T] | > 60
CC(C)(C)OC(=O)Nc1ccc(-c2nc(-c3ccc(CC(NC(=O)c4cc(-c5ccc(F)cc5)no4)C(=O)O)cc3F)no2)cc1 (stereo not shown) [Compound 2U] | > 60
COc1ccc(Cn2cc(C(=O)NC(Cc3ccc(-c4noc(-c5ccc(NC(=O)OC(C)(C)C)cc5)n4)c(F)c3)C(=O)O)cn2)cc1 (stereo not shown) [Compound 2W] | > 60
Cc1ccc(-c2nc(C(=O)NC(Cc3ccc(-c4noc(-c5ccc(NC(=O)OC(C)(C)C)cc5)n4)c(F)c3)C(=O)O)co2)cc1 (stereo not shown) [Compound 2X] | > 60
CC(C)(C)OC(=O)Nc1ccc(-c2nc(-c3ccc(CC(NC(=O)c4cn(Cc5ccc(F)c(F)c5)nn4)C(=O)O)cc3F)no2)cc1 (stereo not shown) [Compound 3C] | > 60
CC(C)c1ccc(-n2cnc(C(=O)NC(Cc3ccc(-c4noc(-c5ccc(NC(=O)OC(C)(C)C)cc5)n4)c(F)c3)C(=O)O)n2)cc1 (stereo not shown) [Compound 3D] | > 60
CC(C)(C)OC(=O)Nc1ccc(-c2nc(-c3ccc(CC(NC(=O)c4coc(-c5ccc(Cl)cc5)n4)C(=O)O)cc3F)no2)cc1 (stereo not shown) [Compound 3H] | 20 to 40
CC(C)(C)OC(=O)Nc1ccc(-c2nc(-c3ccc(CC(NC(=O)c4ncn(-c5ccc(C(C)(C)C)cc5)n4)C(=O)O)cc3F)no2)cc1 (stereo not shown) [Compound 3I] | 40 to 60
CC(C)(C)OC(=O)Nc1ccc(-c2nc(-c3ccc(CC(NC(=O)c4ccn(-c5ccc(C(F)(F)F)cc5)n4)C(=O)O)cc3F)no2)cc1 (stereo not shown) [Compound 3J] | 40 to 60
CC(C)(C)OC(=O)Nc1ccc(-c2nc(-c3ccc(CC(Nc4ccnc(N5CCCCC5)n4)C(=O)O)cc3F)no2)cc1 (stereo not shown) [Compound 3M, 3-{4-[5-(4-tert-Butoxycarbonylamino-phenyl)-[1,2,4]oxadiazol-3-yl]-3-fluoro-phenyl}-2-(2-piperidin-1-yl-pyrimidin-4-ylamino)-propionic acid] | 20 to 40

Same assay, conditions: concentration 10 μM

SMILES | Activity (agonist), percentage of the activity of the control
Cc1ccc(-n2cc(C(=O)NC(Cc3ccc(-c4noc(-c5ccc(NC(=O)OC(C)(C)C)cc5)n4)c(F)c3)C(=O)O)cn2)cc1F (stereo not shown) [Compound 2P, 3-(4-(5-(4-((tert-butoxcarbonyl)amino)phenyl)-1,2,4-oxadiazol-3-yl)-3-fluorophenyl)-2-(1-(3-fluoro-4-methylphenyl)-1H-pyrazole-4-carboxamido)propanoic acid] | A (A represents a value no smaller than 60%)
